US10435361B2, “Kinase inhibitors” (Topivert Pharma Limited, priority 2013, dated 2019)

System: PBMCs
Assay: LPS-induced TNFα/IL-8 release in PBMC cells
Assay type: cell-based
Conditions: Homo sapiens, assay (b), read-out: IC50 Values for Inhibition of Cytokine Release PBMCs IL-8
Experimental: Peripheral blood mononuclear cells (PBMCs) from healthy subjects are separated from whole blood using a density gradient (Lymphoprep, Axis-Shield Healthcare). The PBMCs are seeded in 96 well plates and treated with compounds at the desired concentration for 2 hours before addition of 1 ng/mL LPS (Escherichia Coli 0111:B4 from Sigma Aldrich) for 24 hours under normal tissue culture conditions (37° C., 5% CO2). The supernatant is harvested for determination of IL-8 and TNFα concentrations by sandwich ELISA (Duo-set, R&D systems) and read on the fluorescence microplate reader (Varioskan® Flash, ThermoFisher Scientific).

SMILES	IC50
COCCOCCOCCOc1cc(Nc2nccc(Oc3ccc(NC(=O)Nc4cc(C(C)(C)C)ccc4OC)c4ccccc34)n2)cc(OC)c1 [Example 8, 1-(5-(tert-Butyl)-2-methoxyphenyl)-3-(4-((2-((3-methoxy-5-(2-(2-(2-methoxyethoxy)ethoxy)-ethoxy)phenyl)amino)pyrimidin-4-yl)oxy)naphthalen-1-yl)urea]	28.1 nM
C#Cc1cc(Nc2nccc(Oc3ccc(NC(=O)Nc4cc(C(C)(C)C)cc(C(=O)NC)c4OC)c4ccccc34)n2)cc(C(=O)NCCN2CCOCC2)c1 [Example 9, 5-(tert-Butyl)-3-(3-(4-((2-((3-ethynyl-5-((2-morpholinoethyl)carbamoyl)phenyl)amino)-pyrimidin-4-yl)oxy)naphthalen-1-yl)ureido)-2-methoxy-N-methylbenzamide]	1.2 nM
COCCOCCOCCOc1cc(Nc2nccc(Oc3ccc(NC(=O)Nc4cc(C(C)(C)C)cc(C(=O)N(C)C)c4OC)c4ccccc34)n2)cc(OC)c1 [Example 19, 5-(tert-Butyl)-2-methoxy-3-(3-(4-((2-((3-methoxy-5-(2-(2-(2-methoxyethoxy)ethoxy)-ethoxy)phenyl)amino)pyrimidin-4-yl)oxy)naphthalen-1-yl)ureido)-N,N-dimethylbenzamide]	8.7 nM
COCCOCCOCCOc1cc(Nc2nccc(Oc3ccc(NC(=O)Nc4cc(C(C)(C)C)cc(C(=O)O)c4OC)c4ccccc34)n2)cc(OC)c1 [Example 21, 5-(tert-Butyl)-2-methoxy-3-(3-(4-((2-((3-methoxy-5-(2-(2-(2-methoxyethoxy)ethoxy)-ethoxy)phenyl)amino)pyrimidin-4-yl)oxy)naphthalen-1-yl)ureido)benzoic acid]	34.4 nM
COCCOCCOCCOc1cc(Nc2nccc(Oc3ccc(NC(=O)Nc4cc(C(C)(C)C)cc(C#N)c4OC)c4ccccc34)n2)cc(OC)c1 [Example 22, 1-(5-(tert-Butyl)-3-cyano-2-methoxyphenyl)-3-(4-((2-((3-methoxy-5-(2-(2-(2-methoxy-ethoxy)ethoxy)ethoxy)phenyl)amino)pyrimidin-4-yl)oxy)naphthalen-1-yl)urea]	16.9 nM
COCCOCCOCCOc1cc(Nc2nccc(Oc3ccc(NC(=O)Nc4cc(C(C)(C)C)cc(N)c4OC)c4ccccc34)n2)cc(OC)c1 [Example 25, 1-(3-Amino-5-(tert-butyl)-2-methoxyphenyl)-3-(4-((2-((3-methoxy-5-(2-(2-(2-methoxy-ethoxy)ethoxy)ethoxy)phenyl)amino)pyrimidin-4-yl)oxy)naphthalen-1-yl)urea]	7 nM
COc1cc(Nc2nccc(Oc3ccc(NC(=O)Nc4cc(C(C)(C)C)cc(NS(C)(=O)=O)c4OC)c4ccccc34)n2)cc(C(=O)NCCOCCOCCC(=O)O)c1 [Example 26, 3-(2-(2-(3-((4-((4-(3-(5-(tert-Butyl)-2-methoxy-3-(methylsulfonamido)phenyl)ureido)-naphthalen-1-yl)oxy)pyrimidin-2-yl)amino)-5-methoxybenzamido)ethoxy)ethoxy)-propanoic acid]	21.7 nM
COCCOCCOCCOc1cc(Nc2nccc(Oc3ccc(NC(=O)Nc4cc(C(C)(C)C)cc(Nc5ncccn5)c4OC)c4ccccc34)n2)cc(OC)c1 [Example 28, 1-(5-(tert-Butyl)-2-methoxy-3-(pyrimidin-2-ylamino)phenyl)-3-(4-((2-((3-methoxy-5-(2-(2-(2-methoxyethoxy)ethoxy)ethoxy)phenyl)amino)pyrimidin-4-yl)oxy)naphthalen-1-yl)urea]	11.9 nM
COc1cc(Nc2nccc(Oc3ccc(NC(=O)Nc4cc(C(C)(C)C)cc(NS(C)(=O)=O)c4OC)c4ccccc34)n2)cc(OCCOCCOCCC(=O)O)c1 [Example 30, 3-(2-(2-(3-((4-((4-(3-(5-(tert-Butyl)-2-methoxy-3-(methylsulfonamido)phenyl)ureido)-naphthalen-1-yl)oxy)pyrimidin-2-yl)amino)-5-methoxyphenoxy)ethoxy)ethoxy)propanoic acid]	5.7 nM
COc1cc(Nc2nccc(Oc3ccc(NC(=O)Nc4cc(C(C)(C)C)cc(NS(C)(=O)=O)c4OC)c4ccccc34)n2)cc(OCCOCCC(=O)O)c1 [Example 31, 3-(2-(3-((4-((4-(3-(5-(tert-Butyl)-2-methoxy-3-(methylsulfonamido)phenyl)ureido)-naphthalen-1-yl)oxy)pyrimidin-2-yl)amino)-5-methoxyphenoxy)ethoxy)propanoic acid]	7.2 nM
CNC(=O)c1cc(N2CCOCC2)cc(NC(=O)Nc2ccc(Oc3ccnc(Nc4cc(OC)cc(OCCOCCOCCOC)c4)n3)c3ccccc23)c1OC [Example 32, 2-Methoxy-3-(3-(4-((2-((3-methoxy-5-(2-(2-(2-methoxyethoxy)ethoxy)ethoxy)phenyl)-amino)pyrimidin-4-yl)oxy)naphthalen-1-yl)ureido)-N-methyl-5-morpholinobenzamide]	7.7 nM
COCCOCCOCCOc1cc(Nc2nccc(Oc3ccc(NC(=O)Nc4cc(C(C)(C)C)cc(C(=O)NC5CC5)c4OC)c4ccccc34)n2)cc(OC)c1 [Example 33, 5-(tert-Butyl)-N-cyclopropyl-2-methoxy-3-(3-(4-((2-((3-methoxy-5-(2-(2-(2-methoxy-ethoxy)ethoxy)ethoxy)phenyl)amino)pyrimidin-4-yl)oxy)naphthalen-1-yl)ureido)-benzamide]	4.2 nM
COCCOCCOCCOc1cc(Nc2nccc(Oc3ccc(NC(=O)Nc4cc(C(C)(C)C)cc(C(=O)NCc5ccccc5)c4OC)c4ccccc34)n2)cc(OC)c1 [Example 38, N-Benzyl-5-(tert-butyl)-2-methoxy-3-(3-(4-((2-((3-methoxy-5-(2-(2-(2-methoxyethoxy)-ethoxy)ethoxy)phenyl)amino)pyrimidin-4-yl)oxy)naphthalen-1-yl)ureido)benzamide]	6.3 nM
COCCOCCOCCOCCOCCOCCOCCNC(=O)c1cc(Nc2nccc(Oc3ccc(NC(=O)Nc4cc(C(C)(C)C)cc(NS(C)(=O)=O)c4OC)c4ccccc34)n2)cc(OC)c1 [Example 40, 3-((4-((4-(3-(5-(tert-Butyl)-2-methoxy-3-(methylsulfonamido)phenyl)ureido)naphthalen-1-yl)oxy)pyrimidin-2-yl)amino)-N-(2,5,8,11,14,17,20-heptaoxadocosan-22-yl)-5-methoxy-benzamide]	3.1 nM
CCNC(=O)c1cc(C(C)(C)C)cc(NC(=O)Nc2ccc(Oc3ccnc(Nc4cc(OC)cc(OCCOCCOCCOC)c4)n3)c3ccccc23)c1OC [Example 41]	4.5 nM
COCCOCCOCCOc1cc(Nc2nccc(Oc3ccc(NC(=O)Nc4cc(C(C)(C)C)cc(C(=O)NC(C)C)c4OC)c4ccccc34)n2)cc(OC)c1 [Example 42, 5-(tert-Butyl)-N-isopropyl-2-methoxy-3-(3-(4-((2-((3-methoxy-5-(2-(2-(2-methoxyethoxy)-ethoxy)ethoxy)phenyl)amino)pyrimidin-4-yl)ox)naphthalen-1-yl)ureido)benzamide]	6.6 nM
COCCNC(=O)c1cc(C(C)(C)C)cc(NC(=O)Nc2ccc(Oc3ccnc(Nc4cc(OC)cc(OCCOCCOCCOC)c4)n3)c3ccccc23)c1OC [Example 43, 5-(tert-Butyl)-2-methoxy-3-(3-(4-((2-((3-methoxy-5-(2-(2-(2-methoxyethoxy)ethoxy)-ethoxy)phenyl)amino)pyrimidin-4-yl)oxy)naphthalen-1-yl)ureido)-N-(2-methoxyethyl)-benzamide]	2 nM
COCCOCCOCCOc1cc(Nc2nccc(Oc3ccc(NC(=O)Nc4cc(C(C)(C)C)cc(C(=O)NCC(=O)O)c4OC)c4ccccc34)n2)cc(OC)c1 [Example 44, 2-(5-(tert-Butyl)-2-methoxy-3-(3-(4-((2-((3-methoxy-5-(2-(2-(2-methoxyethoxy)ethoxy)-ethoxy)phenyl)amino)pyrimidin-4-yl)oxy)naphthalen-1-yl)ureido)benzamido)acetic acid]	86.8 nM
COc1cc(Nc2nccc(Oc3ccc(NC(=O)Nc4cc(C(C)(C)C)cc(NS(C)(=O)=O)c4OC)c4ccccc34)n2)cc(C(=O)C2CC2)c1 [Example 50, N-(5-(tert-Butyl)-3-(3-(4-((2-((3-(cyclopropanecarbonyl)-5-methoxyphenyl)amino)-pyrimidin-4-yl)oxy)naphthalen-1-yl)ureido)-2-methoxyphenyl)methanesulfonamide]	12.1 nM
C#Cc1cc(Nc2nccc(Oc3ccc(NC(=O)Nc4cc(C(C)(C)C)cc(C(=O)NC)c4OC)c4ccccc34)n2)cc(C(=O)N[C@@H](C)CN2CCOCC2)c1 [Example 60, (S)-5-(tert-Butyl)-3-(3-(4-((2-((3-ethynyl-5-((1-morpholinopropan-2-yl)carbamoyl)phenyl)amino)pyrimidin-4-yl)oxy)naphthalen-1-yl)ureido)-2-methoxy-N-methylbenzamide]	2 nM
C#Cc1cc(Nc2nccc(Oc3ccc(NC(=O)Nc4cc(C(C)(C)C)cc(C(=O)NC)c4OC)c4ccccc34)n2)cc(C(=O)N[C@H](C)CN2CCOCC2)c1 [Example 61, (R)-5-(tert-Butyl)-3-(3-(4-((2-((3-ethynyl-5-((1-morpholinopropan-2-yl)carbamoyl)phenyl)amino)pyrimidin-4-yl)oxy)naphthalen-1-yl)ureido)-2-methoxy-N-methylbenzamide]	2.1 nM
COCCOCCOCCOc1cc(Nc2nccc(Oc3ccc(NC(=O)Nc4cc(C(C)(C)C)cc5[nH]c(=O)oc45)c4ccccc34)n2)cc(OC)c1 [Example 63, 1-(5-(tert-Butyl)-2-oxo-2,3-dihydrobenzo[d]oxazol-7-yl)-3-(4-((2-((3-methoxy-5-(2-(2-(2-methoxyethoxy)ethoxy)ethoxy)phenyl)amino)pyrimidin-4-yl)oxy)naphthalen-1-yl)urea]	17.3 nM
COCCOCCOCCOc1cc(Nc2nccc(Oc3ccc(NC(=O)Nc4cc(C(C)(C)C)cc5nc(C)oc45)c4ccccc34)n2)cc(OC)c1 [Example 64, 1-(5-(tert-Butyl)-2-methylbenzo[d]oxazol-7-yl)-3-(4-((2-((3-methoxy-5-(2-(2-(2-methoxy-ethoxy)ethoxy)ethoxy)phenyl)amino)pyrimidin-4-yl)oxy)naphthalen-1-yl)urea]	10.5 nM
